Patent US9284298B2, “Pyrazolyl-pyrimidine derivatives as kinase inhibitors” (NERVIANO MEDICAL SCIENCES S.R.L., priority 2011, dated 2016)
Where a name gives a salt, the structure may show the parent alone.

Columns and labels:
MPS1 = MPS1 (Homo sapiens (Human), UniProt P33981); test: Biochemical assay for inhibitors of MPS1 kinase activity (trans-phosphorylation, Dowex); details: 15 μM ATP, P38-tide substrate
Excerpt: Cloning, Expression and Purification of Recombinant MPS1 Full Length Protein.
MPS1 full length (corresponding to residues 2-857 of the full length sequence, see Swiss-Prot accession number P33981) was PCR amplified from the full-length human MPS1 gene present in house as clone pGEX4t_MPS1.
Baculoviruses were generated by cotransfecting Sf9 insect cells with the expression vector and the viral DNA using the BaculoGold® transfection kit (Pharmingen). Viral supernatant was recovered after 5 days and subjected to 3 rounds of amplification to increase viral titer. Recombinant protein was produced by infecting High5 insect cells. After 72 h of infection at 21° C., cells were recovered, pelletted and freezed at −80° C. For purification of recombinant protein, pellet was thawed, resuspended in lysis buffer (PBS, NaCl 150 mM, Glycerol 10%, CHAPS 0.1%, DTT 20 mM, protease and phosphatase inhibitors) and lysed by Gaulin. Lysate was cleared by centrifugation and loaded on a GST affinity column. After extensive wash, recombinant protein was cleaved by a specific protease and eluted by incubation.
To get a fully activated enzyme, the protein was then subjected to auto-phosphorylation in presence of ATP 1 mM at 25° C. for 2 h in kinase buffer (Hepes pH 7.5 50 mM, MgCl2 2.5 mM, MnCl2 1 mM, DTT 1 mM, phosphatase inhibitors); ATP was then removed with a desalting column.
Biochemical Assay for Inhibitors of MPS1 Kinase Activity The inhibitory activity of putative kinase inhibitors and the potency of selected compounds were determined using a trans-phosphorylation assay.
(§1) Specific peptide or protein substrates are trans-phosphorylated by their specific ser-thr or tyr kinase in the presence of ATP traced with ^33P-γ-ATP, and in the presence of their own optimal buffer and cofactors.
(§2) At the end of the phosphorylation reaction, more than 98% unlabeled ATP and radioactive ATP is captured by an excess of the ion exchange dowex resin; the resin then settles down to the bottom of the reaction plate by gravity.
(§3) Supernatant is subsequently withdrawn and transferred into a counting plate, then evaluated by β-counting.
The buffer for MPS1 assay was composed of HEPES 50 mM, at pH 7.5, with 2.5 mM MgCl2, 1 mM MnCl2, 1 mM DTT, 3 μM Na3VO4, 2 mM β-glycerophosphate and 0.2 mg/mL BSA.
The assay was run with a final concentration MPS1 of 5 nM, in the presence of 15 μM ATP and 1.5 nM ^33P-γ-ATP; the substrate was P38-tide, used at 200 μM.
Test compounds are received as a 1 mM solution in 100% DMSO, distributed into 96 or 384 well plates: • a) for percent inhibition studies (HTS), individual dilution plates at 1 mM are diluted at a 3× concentration (30 μM) in ddH2O (3% DMSO=final concentration) using a Beckman NX automated pipetting platform. […]

PIM2 = PIM2 (Homo sapiens (Human), UniProt Q9P1W9); test: PIM2 kinase inhibition assay: Dowex technique; format: biochemical; details: 4 μM ATP, Aktide substrate
PIM2, sequence (Q9P1W9 whole entry): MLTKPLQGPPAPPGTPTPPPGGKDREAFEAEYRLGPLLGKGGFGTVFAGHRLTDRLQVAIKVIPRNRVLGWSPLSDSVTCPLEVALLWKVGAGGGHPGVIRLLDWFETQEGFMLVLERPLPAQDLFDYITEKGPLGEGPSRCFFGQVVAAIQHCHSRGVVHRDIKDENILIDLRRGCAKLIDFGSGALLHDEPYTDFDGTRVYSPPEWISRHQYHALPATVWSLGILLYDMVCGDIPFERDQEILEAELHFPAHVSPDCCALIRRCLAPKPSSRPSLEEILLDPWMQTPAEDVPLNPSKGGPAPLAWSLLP
Method: Method for PIM2 Kinase Inhibition Assay: Dowex Technique
The buffer for PIM2 assay was composed of HEPES 50 mM, at pH 7.5, with 1 mM MgCl2, 1 mM DTT, 3 μM Na3VO4, and 0.2 mg/mL BSA.
Full-length human PIM2 was expressed and purified as described in Fedorov O, et al., PNAS 2007 104, 51, 20523-28.
Enzyme concentration=1.5 nM
Aktide substrate (Chemical Abstract Service Registry Number 324029-01-8)=5 μM
See above: same procedure as described for PIM1.

PIM1 = PIM1 (Homo sapiens (Human), UniProt P11309); test: Biochemical assay for inhibitors of PIM1 kinase activity (trans-phosphorylation, Dowex); details: 200 μM ATP, Aktide substrate
PIM1, sequence (P11309 whole entry): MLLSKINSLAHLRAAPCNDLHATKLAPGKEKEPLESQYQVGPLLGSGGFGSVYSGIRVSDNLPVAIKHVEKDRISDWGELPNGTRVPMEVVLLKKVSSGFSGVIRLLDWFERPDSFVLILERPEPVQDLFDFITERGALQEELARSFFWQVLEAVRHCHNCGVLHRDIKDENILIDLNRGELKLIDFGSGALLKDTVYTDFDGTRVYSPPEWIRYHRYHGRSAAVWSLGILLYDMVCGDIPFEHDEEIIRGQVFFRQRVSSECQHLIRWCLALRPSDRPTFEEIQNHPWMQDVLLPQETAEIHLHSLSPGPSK
Method: The short forms and abbreviations used herein have the following meaning: • Ci Curie • DMSO dimethylsulfoxide • KDa kiloDalton • microCi microCurie • mg milligram • microg microgram • ng nanogram • L liter • mL milliliter • μL microliter • M molar • mM millimolar • μM micromolar • nM nanomolar Biochemical Assay for Inhibitors of PIM1 Kinase Activity
The inhibitory activity of putative kinase inhibitors and the potency of selected compounds were determined using a trans-phosphorylation assay.
as §1, §2, §3
The buffer for PIM1 assay was composed of HEPES 50 mM, at pH 7.5, with 10 mM MgCl2, 1 mM DTT, 3 μM NaVO3, and 0.2 mg/mL BSA. […]
Data are analyzed by an internally customized version of the “Assay Explorer” SW package, which provides sigmoidal fitting of the ten-dilution curves for IC50 determination in secondary assay/hit confirmation routines.

MPS1, sequence (P33981 2-857): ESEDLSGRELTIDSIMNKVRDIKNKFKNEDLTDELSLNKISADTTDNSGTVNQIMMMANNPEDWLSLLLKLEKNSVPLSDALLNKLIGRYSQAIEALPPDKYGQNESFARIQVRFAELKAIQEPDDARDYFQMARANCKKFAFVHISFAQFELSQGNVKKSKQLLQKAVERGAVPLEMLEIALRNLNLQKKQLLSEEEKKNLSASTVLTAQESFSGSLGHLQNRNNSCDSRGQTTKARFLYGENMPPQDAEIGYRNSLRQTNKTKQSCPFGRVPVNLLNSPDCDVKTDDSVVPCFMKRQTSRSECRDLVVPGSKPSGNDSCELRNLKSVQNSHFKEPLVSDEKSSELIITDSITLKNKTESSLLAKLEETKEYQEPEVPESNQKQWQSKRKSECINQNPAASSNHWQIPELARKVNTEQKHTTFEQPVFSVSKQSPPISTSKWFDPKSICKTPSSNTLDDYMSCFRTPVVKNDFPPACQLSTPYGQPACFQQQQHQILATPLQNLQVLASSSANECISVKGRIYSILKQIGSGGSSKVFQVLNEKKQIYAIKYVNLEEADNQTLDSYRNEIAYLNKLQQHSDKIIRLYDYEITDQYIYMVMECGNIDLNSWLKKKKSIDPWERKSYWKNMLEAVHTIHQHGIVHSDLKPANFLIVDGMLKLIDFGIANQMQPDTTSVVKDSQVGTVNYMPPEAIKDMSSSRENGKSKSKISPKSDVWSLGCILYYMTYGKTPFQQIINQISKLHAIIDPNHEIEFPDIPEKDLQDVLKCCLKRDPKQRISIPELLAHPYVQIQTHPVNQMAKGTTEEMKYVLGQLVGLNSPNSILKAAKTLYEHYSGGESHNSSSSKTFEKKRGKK

IC50 (PIM2)	IC50 (PIM1)	Structure (SMILES)	IC50 (MPS1)
–	–	CCc1cccc(CC)c1NC(=O)c1cc(-c2ccnc(Nc3ccc(N4CCN(C)CC4)cc3OC)n2)[nH]n1 [Compound 11, N-(2,6-diethylphenyl)-5-(2-{[2-methoxy-4-(4-methylpiperazin-1-yl)phenyl]amino}pyrimidin-4-yl)-1H-pyrazole-3-carboxamide]	< 0.2 µM
–	–	CCc1cccc(CC)c1NC(=O)c1cc(-c2ccnc(Nc3ccc(N4CCN(C)CC4)cc3OC)n2)n(C)n1 [Compound 3, N-(2,6-diethylphenyl)-5-(2-{[2-methoxy-4-(4-methylpiperazin-1-yl)phenyl]amino}pyrimidin-4-yl)-1-methyl-1H-pyrazole-3-carboxamide]	< 0.2 µM
–	–	CCc1cccc(CC)c1NC(=O)c1cc(-c2ccnc(Nc3ccc(N4CCN(CCO)CC4)cc3OC)n2)n(C)n1 [Compound 8, N-(2,6-diethylphenyl)-5-[2-({4-[4-(2-hydroxyethyl)piperazin-1-yl]-2-methoxyphenyl}amino)pyrimidin-4-yl]-1-methyl-1H-pyrazole-3-carboxamide]	< 0.2 µM
< 10 µM	< 10 µM	CSc1nccc(-c2cc(C(N)=O)nn2C2CCNCC2)n1 [Compound 21, 5-[2-(methylsulfanyl)pyrimidin-4-yl]-1-(piperidin-4-yl)-1H-pyrazole-3-carboxamide hydrochloride]	–
–	–	CCc1cccc(CC)c1NC(=O)c1cc(-c2ccnc(Nc3ccc(N4CCN(CCO)CC4)cc3OC)n2)[nH]n1 [Compound 13, N-(2,6-diethylphenyl)-5-[2-({4-[4-(2-hydroxyethyl)piperazin-1-yl]-2-methoxyphenyl}amino)pyrimidin-4-yl]-1H-pyrazole-3-carboxamide]	< 0.2 µM
